Data as given in patent publication US10251871B2, “Compositions and methods for treatment of edema” (Memorial Sloan Kettering Cancer Center, priority 2015, dated 2019).

Key:
unwounded mouse ears = assay: Unwounded mouse ears, whole mount imaging of lymphatic vessels; format: in vivo, mice; conditions: tacrolimus applied to unwounded ears for 4 weeks
From the text: We also studied lymphangiogenesis during wound healing using an ear punch wound model and applying topical tacrolimus or control ointment for 4 weeks. […] To test the possibility of direct lymphangiogenic effects of tacrolimus, we applied tacrolimus to unwounded mouse ears for 4 weeks, and then performed whole mount confocal imaging of lymphatic vessels. We observed no increase in lymphangiogenesis in this uninjured, non-inflamed setting (FIG. 16).

[1] = test system: mouse tail model of lymphedema; assay: Mouse tail model of lymphedema (tail volume, histology, immunostaining, lymphoscintigraphy, NIR imaging, PCR, ELISA); format: in vivo, C57BL/6J mice
[2] = reference range; cited from earlier work
[3] = test system: corneal lymphatic and blood vessels; assay: Corneal lymphangiogenesis assay (suture placement); format: in vivo, mice; conditions: systemic tacrolimus 4 mg kg^−1 IP daily for 2 weeks after suture placement, vs vehicle
From the text: To determine the lymphangiogenic effects of tacrolimus in other inflammatory and wound models in which drainage of lymphatic fluid is not obstructed surgically, we next used two other models of inflammatory lymphangiogenesis. The cornea is a useful tissue for studying lymphangiogenesis because it is normally devoid of both blood and lymphatic vessels but develops both in the setting of inflammation. Cursiefen et al., J. Clin. Invest. 113:1040-1050 (2004). […] A corneal lymphangiogenesis assay was performed as previously reported. Cursiefen et al., Cornea 25:443-447 (2006). Briefly, 10-0 nylon sutures (Ethicon, Cincinnati, Ohio) were placed in the cornea at […]. Beginning immediately after suture placement, animals were treated with systemic tacrolimus or vehicle control daily for two weeks, followed by analysis using confocal microscopy (Leica Microsystems, Weitziar, Germany). […] Cutaneous lymphangiogenesis was assessed using an ear punch wound model as previously reported. […] Tile-scan images were obtained using a confocal microscope (Leica Microsystems, Weitziar, Germany) and skin within 400 μm of the wound edge was analyzed using Metamorph software (Molecular Devices, Sunnyvale, Calif.). Standardized (200 μm×200 μm) fields were analyzed for the number of branch points present per unit area by two blinded reviewers.

[4] = Tacrolimus blood level by mass spectrometry; format: in vivo, mice
Protocol: Blood levels of tacrolimus were measured using mass spectrometry in a modification of a previously reported method. Donaldson et al., Meth. Mol. Biol. 603:479-487 (2010). Briefly, whole blood was collected in sodium EDTA-coated tubes (Terumo, Shibuya, Japan) and then analyzed using a Thermo Scientific Aria TLX-2 turbulent flow chromatograph (TFC) coupled to a TSQ Quantum Ultra triple quadrupole mass spectrometer (Thermo Scientific, Franklin, Mass.). The TurboFlow column used was a Cyclone P-50×0.5 mm while the analytical column was a Hypersil Gold C-18 column, 3×50 mm. To whole blood (50 μL) was added 200 μL of 0.2 mM ZnSO4 containing ascomycin as an internal standard. Following a 30 minute incubation and centrifugation, 50 μL of the supernatant was injected into the TFC system. The analytes were eluted through the column (0.75 mL min^−1) with a gradient of water and methanol solutions containing 10 mM ammonium formate and 0.1% formic acid. The analytical run time was 4.5 minutes. The between-day imprecision of the assay was determined at three concentrations over a period of 10 days. At concentrations of 3.3, 12.6 and 31.9 ng mL^−1 the coefficients of variation were of 9.8, 7.0 and 7.8%, respectively. The assay has a linear range from 0 to 40 ng mL^−1.

[5] = topical 0.1% tacrolimus twice daily, early treatment (from 2 weeks after surgery for 4 weeks), vs vehicle control
[6] = topical 0.1% tacrolimus twice daily, late treatment (from 6 weeks after surgery for 3 weeks), vs vehicle control
[7] = topical 0.1% tacrolimus, early and late treatment, vs control
[8] = topical 0.1% tacrolimus, early treatment, qPCR 6 weeks after injury, vs control
[9] = topical 0.1% tacrolimus, early treatment, vs control
[10] = topical 0.1% tacrolimus, late treatment, vs control

**Q.** What does the source list for `C=CC[C@@H]1/C=C(\C)C[C@H](C)C[C@H](OC)[C@H]2O[C@@](O)(C(=O)C(=O)N3CCCC[C@H]3C(=O)O[C@H](/C(C)=C/[C@@H]3CC[C@@H](O)[C@H](OC)C3)[C@H](C)[C@@H](O)CC1=O)[C@H](C)C[C@@H]2OC` [tacrolimus]?
**A.** lymphangiogenesis in uninjured, non-inflamed ear (unwounded mouse ears): no increase; decrease in soft tissue thickness [1, 5]: ~50%; decrease in tail volume [1, 5]: 95%; soft tissue thickness [1, 6]: highly effective in decreasing; tail volume [1, 6]: highly effective in decreasing; Scar index (picrosirius red, ratio of collagen I/III) [1, 7]: markedly decreased; cellular expression of phosphorylated SMAD3 (pSMAD-3) [1, 7]: markedly decreased; dermal and subcutaneous type I collagen deposition [1, 7]: markedly decreased; expression of TGF-β1 (immunofluorescence) [1, 7]: markedly decreased; NIR (ICG) imaging: transport across the tail wound ([1]; topical 0.1% tacrolimus, early treatment, 6 weeks after lymphatic ligation): rapid transport of interstitial fluid proximally across the tail wound; IFN-γ mRNA expression in tail tissue [1, 8]: significant decrease; TGF-β1 mRNA expression in tail tissue [1, 8]: significant decrease; VEGF-C mRNA expression in tail tissue [1, 8]: no differences; increase in decay adjusted 99mTc uptake of the sacral lymph nodes [1, 9]: more than 6 fold; increase in newly formed lymphatic vessels (LYVE-1) bridging the zone of lymphatic injury [1, 9]: 189%; reduction of CD45+ cells (leukocytes) infiltrating dermis and subcutaneous fat [1, 9]: 56%; reduction of IFN-γ-producing cells [1, 9]: 54%; reduction of infiltrating CD3+ cells [1, 9]: 53%; reduction of infiltrating CD4+ cells [1, 9]: 78%; reduction of soft tissue infiltration of macrophages (F4/80+ cells) [1, 9]: 86%; increase in newly formed lymphatic vessels (LYVE-1) bridging the zone of lymphatic injury [1, 10]: 106%; reduction of CD45+ cells (leukocytes) infiltrating dermis and subcutaneous fat [1, 10]: 49%; reduction of IFN-γ-producing cells [1, 10]: 57%; reduction of infiltrating CD3+ cells [1, 10]: 49%; reduction of infiltrating CD4+ cells [1, 10]: 71%; reduction of soft tissue infiltration of macrophages (F4/80+ cells) [1, 10]: 73%; increase in 99mTc nodal uptake ([1]; topical 0.1% tacrolimus, late treatment, vs control, did not reach statistical significance): 2 fold; known therapeutic immunosuppressive levels achieved with systemic administration [2]: 5 to 15 ng/mL; increase in proliferation of corneal lymphatic vessels (LYVE-1+) [3]: 48%; whole blood tacrolimus levels ([4]; systemic tacrolimus 4 mg kg^−1 IP daily): immunosuppressive concentrations; whole blood tacrolimus level (systemic absorption), mean value ([4]; topical tacrolimus): 1.06 ng/mL
